US20260102413A1, “TREATING PAIN ASSOCIATED WITH CENTRAL SENSITIZATION” (Medicon Pharmaceuticals, Inc., priority 2022, published 2026)

Experiments:
[1] = tested on: mice with paclitaxel-induced CIPN; assay: von Frey PWT, paclitaxel CIPN model, orally administered compounds; type: in vivo, mouse; details: paclitaxel 8 mg/kg x4; oral gavage 3x/day 7 days: PS 50, sulindac 33, PN 65, naproxen 35 mg/kg; day 7
Text: CIPN was induced in mice with chemotherapeutic agents using established protocols (Carozzi et al, 2010; Currie et al, 2019; Eldridge et al, 2020). […] This dosing regimen of paclitaxel produces pain associated with CIPN with time courses that are similar to those of pain after paclitaxel administration in cancer patients.
Group 1: naïve mice (i.e. no paclitaxel, n=8) • 2. Group 2: paclitaxel only (n=8) • 3. Group 3: paclitaxel plus vehicle (n=8) • 4. […] Group 5: paclitaxel pluse sulindac (n=8)
The PWT test was performed on day 7.
Phospho-naproxen (PN) and naproxen were given by oral gavage, three times a day for 7 days. Their doses were as follows: PN, 65 mg/kg; naproxen, 35 mg/kg (equimolar to PN). The response of mechanical allodynia to phospho-naproxen (PN) and naproxen was tested on day 7.
(§1) This dosing regimen of paclitaxel produces pain associated with CIPN with time courses that are similar to those of pain after paclitaxel administration in cancer patients.
Phospho-ibuprofen (PI) (Formula III), phospho-glycerol-ibuprofen (PGI) (Formula LXXI), phospho-ibuprofen-amide (PIA) (Formula XI), and ibuprofen were given by oral gavage, three times a day for 6 days. Their doses were as follows: ibuprofen, 40 mg/kg; PI, 80 mg/kg; PIA, 80 mg/kg; all three were equimolar.
The response of mechanical allodynia to these compounds was tested on day 6, using the PWT test.
as §1
NO-sulindac (Formula XLIV), HS-sulindac (Formula XXXIV), platinum-sulindac (Formula LXVII), and NOSH-1 (Formula LIX) were given by oral gavage, three times a day throughout the study period. Their doses were all 100 mg/kg.
The response of mechanical allodynia to these compounds was tested on the days set out in the table below, via the PWT test.
LXIX was given by oral gavage, once a day for 14 days at a dose of 100 mg/kg.
The response of mechanical allodynia to these compounds was tested on day 14, via the PWT test.

[2] = tested on: BALB/c mice infected with HSV-1 KOS strain (PHN); type: in vivo, mouse; details: second experiment; sulindac 5% gel on both hind paws 3x/day for three days
Experimental: PHN was induced in mice by infecting them with the HSV-1 KOS strain virus and following established protocols (Ou et al, Front Immunol, 14, 1026269, 2023; Takasaki et al, Anesthesiology, 96 (5), 1168-74, 2002).
; Reckitt Benckiser). Three days later, HSV-1 (10^6 PFUs in 20 μl PBS) was inoculated on the shin of the right hind paw (5×5 mm) after scarification with sandpaper. The virus was applied directly to the scarified area. The contralateral hind paw was without inoculation. Mock infection was performed using the same virus inactivated by heating at 60° C. for 1 h.
In a second experiment, the effect of the parent compound, sulindac, was tested in the same mouse model. Five days post-inoculation, sulindac (as a 5% gel), or vehicle control were administered topically onto both hind paws of mice three times a day for three days.
PHN was induced in mice by infecting them with the HSV-1 KOS strain virus in line with the previous Examples.
Five days post-inoculation, NO-sulindac (Formula XLIV) (as a 5% gel), or vehicle control were administered topically onto both hind paws of mice three times a day for three days.

**Q.** `CC1=C(CC(=O)O)c2cc(F)ccc2/C1=C\c1ccc([S+](C)[O-])cc1` (centres unmarked) [sulindac, reference compound] was tested. Which “PWT, g Mean ± SEM” value [1] did it give?
**A.** Its value is 0.56 ± 0.05 g.

**Q.** What about the “PWT, g Mean ± SEM, Post-inoculation and treatment” value [2] of the same molecule?
**A.** Its value is 0.56 ± 0.06 g.
